Source: US9278925B2, “Substituted 3-(biphenyl-3-yl)-4-hydroxy-8-methoxy-1-azaspiro[4.5]dec-3-en-2-one” (BAYER INTELLECTUAL PROPERTY GMBH, priority 2011, dated 2016)
Where “and” joins values, the source holds several entries; their conditions need not be identical. Equal values may be shown once. Read-outs that look alike come from different tables or passages of the source.

Assays:
human ACC1 [1] = target: human ACC1 (Homo sapiens, UniProt Q13085); assay: Human ACC1 enzyme assay (ADP-Glo); assay type: biochemical; settings: individual measurement (measurement no./preparation no. in table), read-out: ACC 1 IC50
Protocol: (§1) Typical concentrations were in the range of 1.75 μl.

human ACC1 [2] = assay: Human ACC1 enzyme assay (ADP-Glo); assay type: biochemical
Protocol: as §1

[3] = Pharmacokinetic parameters in the rat (i.v. and intragastric); assay type: in vivo; settings: for F: oral bioavailability; for t½: terminal
Protocol: Determination of the Pharmacokinetic Parameters of a Test Substance in the Rat and in the Dog For this, the test substances were applied in dissolved form both for intravenous, and for intragastric application, wherein compatible solubilizers such as PEG400 and/or ethanol were used in a compatible amount. […] Administration was as a bolus injection in the male rat and as an infusion in the female dog (15 min) At various time points after the bolus injection, and before and after the 15-minute infusion, blood samples of about 100-150 μl were removed via a catheter either from the jugular vein (rat) or from the saphenous vein (dog). Lithium-heparin was added as anticoagulant to the blood samples and they were stored in a refrigerator until required for further processing. After centrifugation of the samples for 15 min at 3000 rpm, an aliquot of 100 μl was taken from the supernatant (plasma) and was precipitated by adding 400 μl of cold ACN or methanol (absolute). The precipitated samples were frozen-out at […] overnight, then centrifuged again at 3000 rpm for 15 min, before 150 μl of the clear supernatant were removed to determine the concentration. The analysis was effected by means of an Agilent 1200 HPLC system with connected LCMS/MS detection. Calculation of the PK parameters (using PK calculation software, e.g. WinNonLin®): CLplasma: total plasma clearance of the test substance (in 1*kg/h); CLblood: total blood clearance of the test substance (in 1*kg/h), where (CLblood=CLplasma*Cp/Cb); Vss: apparent steady-state distribution volume (in 1/kg); t½: half-life within a specified interval (here: terminal t½, in h); AUCnorm: area under the plasma concentration time profile from time point zero extrapolated to infinity divided by the dose normalized for body weight (in kg*l/h); AUC(0-tn)norm: integrated area under the plasma concentration time profile from time point zero until the last time point at which a plasma concentration was measurable, divided by the dose normalized for body weight (in kg*l/h); Cmax: maximum concentration of the test substance in the plasma (in μg/l); Cmax,norm: maximum concentration of the test substance in the plasma divided by the dose normalized for body weight (in kg/l); Cb/Cp: ratio of the blood to plasma concentration distribution. […] At various time points after administration, blood samples of about 100-150 μl were removed via a catheter either from the jugular vein (rat) or from the saphenous vein (dog). Lithium-heparin was added as anticoagulant to the blood samples and they were stored in a refrigerator until required for further processing. After centrifugation of the samples for 15 min at 3000 rpm, an aliquot of 100 μl was taken from the supernatant (plasma) and was precipitated by adding 400 μl of cold ACN or methanol (absolute). The precipitated samples were frozen-out at −20° C. overnight, then centrifuged at 3000 rpm for 15 min, before 150 μl of the clear supernatant were removed to determine the concentration. The analysis was effected by means of an Agilent 1200 HPLC system with connected LCMS/MS detection. […]

[4] = Maximum tolerated dose (MTD) in female nude mice; assay type: in vivo, mouse; settings: for Deaths: 21 days, 1 administration per day; for MTD at 21 days: female, NMRI-nude (nu/nu), mouse, in vivo, 21-day treatment, administration once per day, oral
Protocol: To this end, initially the maximum tolerable dose (MTD) was determined using the following protocol:
The MTD was defined as the highest dose which could be administered without any animal dying during the treatment phase, and without any body weight loss of more than 10% compared to the initial weight.
(§2) Administration route: oral
• (Solutol HS15: polyoxyethylene ester of 12-hydroxystearic acid) Administration volume: 10 ml/kg: Protocol: see Table 7
The treatment phase was followed by an observation phase of 21 days.

human PC-3 cells = settings: for T/C: final tumour weight
Protocol: Xenograft models in immunosuppressed mice were used to determine the antitumour activity in living organisms.
Use was made primarily of a prostate carcinoma model with hormone-independent human PC-3 cells in male nude mice (NMRI-nude (nu/nu) mice, Taconic M&B A/S). To this end, 3 million tumour cells (suspended in medium+Matrigel 1:1, final 0.1 ml) were injected subcutaneously into the side of each animal. When the tumours extended to an area of 20-30 mm^2, the mice were randomized into therapy groups and therapy was initiated. […] At this point in time, the experiment was terminated in all groups and the prepared tumours were weighed.
The T/C value was calculated as primary success parameter using the effect on the final tumour weight: mean tumour weight in the treatment group divided by mean of the tumour weight in the vehicle group.
as §2
Vehicle: PEG400/ethanol/Solutol HS 15 (70/5/25, v/v/v)
Administration volume: 10 ml/kg
Number of mice: see Table 8

[5] = Effective AUC from plasma concentration time profile in the PC3 tumour model; assay type: in vivo, mouse
Protocol: (§3) The human pharmacokinetic (PK) parameters (Table 9) were predicted based on the in vivo PK parameters obtained for rats (single species scaling), taking into account the interspecies differences in the free fraction (fu) in the plasma. The effective AUC (area under curve) was determined based on the measured plasma concentration time profile for in vivo efficacy in the PC3 tumour model of the mouse (nu/nu mouse).

[6] = Prediction of human pharmacokinetic parameters and human therapeutic dosage (single species scaling from rat); settings: for pred. CL (human): predicted (fu-corrected) from rat PK
Protocol: as §3, with “mouse). The therapeutic human dosage was determined using the predicted human clearance (CL), assuming 100% bioavailability (F=1) and using the effective AUC in the animal model according to the formula below: […]” for “mouse).”

human ACC2 = human ACC2 (Homo sapiens (Human), UniProt O00763); assay: Human ACC2 enzyme assay (ADP-Glo); settings: read-out: ACC 2 IC50, individual measurement (measurement no./preparation no. in table)
[7] = 100 mg/kg oral, 14 days, 1 administration per day
[8] = 100 mg/kg oral, 14 days, 2 administrations per day
[9] = 40 mg/kg oral, 20 days, 1 administration per day
[10] = 80 mg/kg oral, 14 days, 2 administrations per day
[11] = 80 mg/kg oral, 20 days, 1 administration per day

Sequence of human ACC2 (O00763 27-2458 limits assumed): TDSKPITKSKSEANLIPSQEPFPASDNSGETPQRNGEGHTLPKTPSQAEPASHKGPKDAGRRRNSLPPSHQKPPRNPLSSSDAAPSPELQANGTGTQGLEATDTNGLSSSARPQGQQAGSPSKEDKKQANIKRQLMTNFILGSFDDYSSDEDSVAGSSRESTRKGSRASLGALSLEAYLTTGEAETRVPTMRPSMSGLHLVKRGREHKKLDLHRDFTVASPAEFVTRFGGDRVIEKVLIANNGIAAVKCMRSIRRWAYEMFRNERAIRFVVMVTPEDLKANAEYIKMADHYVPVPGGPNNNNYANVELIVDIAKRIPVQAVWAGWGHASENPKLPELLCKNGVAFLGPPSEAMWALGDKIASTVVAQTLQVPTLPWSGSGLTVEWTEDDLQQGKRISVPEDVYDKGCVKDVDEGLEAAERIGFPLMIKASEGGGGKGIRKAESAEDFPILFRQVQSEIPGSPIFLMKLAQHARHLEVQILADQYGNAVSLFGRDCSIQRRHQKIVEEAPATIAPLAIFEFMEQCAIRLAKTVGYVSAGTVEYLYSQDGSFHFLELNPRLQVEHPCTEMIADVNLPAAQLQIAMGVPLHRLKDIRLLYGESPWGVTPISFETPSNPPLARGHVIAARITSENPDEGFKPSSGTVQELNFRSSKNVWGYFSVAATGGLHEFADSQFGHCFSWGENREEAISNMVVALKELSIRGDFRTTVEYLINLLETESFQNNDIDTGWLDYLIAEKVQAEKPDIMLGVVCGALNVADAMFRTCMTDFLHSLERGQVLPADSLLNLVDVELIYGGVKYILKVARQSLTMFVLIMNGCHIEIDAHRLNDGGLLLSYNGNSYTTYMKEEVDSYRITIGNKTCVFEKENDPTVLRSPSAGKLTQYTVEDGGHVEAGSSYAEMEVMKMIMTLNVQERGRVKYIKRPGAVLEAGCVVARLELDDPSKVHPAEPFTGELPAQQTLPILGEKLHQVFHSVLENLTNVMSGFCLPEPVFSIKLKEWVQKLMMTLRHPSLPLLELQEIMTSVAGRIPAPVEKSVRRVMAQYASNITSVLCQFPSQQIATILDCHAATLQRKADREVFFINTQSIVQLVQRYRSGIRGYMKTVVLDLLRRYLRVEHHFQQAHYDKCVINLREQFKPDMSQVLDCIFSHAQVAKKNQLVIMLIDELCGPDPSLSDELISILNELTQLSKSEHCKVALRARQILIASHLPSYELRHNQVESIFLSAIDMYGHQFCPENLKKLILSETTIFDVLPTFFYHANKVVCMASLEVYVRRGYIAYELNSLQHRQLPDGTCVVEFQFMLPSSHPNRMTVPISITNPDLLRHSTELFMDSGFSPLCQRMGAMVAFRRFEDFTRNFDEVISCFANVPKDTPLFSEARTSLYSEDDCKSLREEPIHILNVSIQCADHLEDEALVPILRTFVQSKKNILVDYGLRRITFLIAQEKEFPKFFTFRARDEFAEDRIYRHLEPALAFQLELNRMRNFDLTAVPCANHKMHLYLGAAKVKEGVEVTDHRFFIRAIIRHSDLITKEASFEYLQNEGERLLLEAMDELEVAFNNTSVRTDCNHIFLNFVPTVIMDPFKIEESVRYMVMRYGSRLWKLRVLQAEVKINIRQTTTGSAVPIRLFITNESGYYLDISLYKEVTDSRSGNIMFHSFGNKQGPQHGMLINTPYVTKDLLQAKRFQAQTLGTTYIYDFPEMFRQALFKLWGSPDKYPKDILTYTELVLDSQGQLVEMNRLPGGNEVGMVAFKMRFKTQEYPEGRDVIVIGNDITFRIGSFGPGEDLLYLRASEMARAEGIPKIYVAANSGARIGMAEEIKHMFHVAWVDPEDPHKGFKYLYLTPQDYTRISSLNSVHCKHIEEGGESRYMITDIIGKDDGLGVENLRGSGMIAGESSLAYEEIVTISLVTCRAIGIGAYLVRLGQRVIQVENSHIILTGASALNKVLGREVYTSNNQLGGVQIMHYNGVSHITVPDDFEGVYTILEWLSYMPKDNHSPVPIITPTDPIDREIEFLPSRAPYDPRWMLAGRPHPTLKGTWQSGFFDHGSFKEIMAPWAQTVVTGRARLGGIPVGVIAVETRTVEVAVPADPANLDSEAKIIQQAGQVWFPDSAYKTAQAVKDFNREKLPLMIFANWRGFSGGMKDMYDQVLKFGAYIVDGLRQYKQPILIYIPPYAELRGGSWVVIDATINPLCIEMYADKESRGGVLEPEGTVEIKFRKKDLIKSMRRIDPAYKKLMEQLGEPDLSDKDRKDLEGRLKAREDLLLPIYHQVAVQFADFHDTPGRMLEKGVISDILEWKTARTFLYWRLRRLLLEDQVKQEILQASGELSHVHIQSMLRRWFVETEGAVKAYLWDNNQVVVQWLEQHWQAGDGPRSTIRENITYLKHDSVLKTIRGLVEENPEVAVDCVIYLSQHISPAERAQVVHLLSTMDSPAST

SMILES: CO[C@]1(C)CC[C@]2(CC1)NC(=O)C(c1cc(-c3ccc(Cl)cc3)ccc1C)=C2O [Example V.1-a, (5r,8r)-3-(4′-Chloro-4-methylbiphenyl-3-yl)-4-hydroxy-8-methoxy-8-methyl-1-azaspiro[4.5]dec-3-en-2-one]
- IC50 (human ACC1 [1]): 0.108 µM and 0.182 µM and 0.132 µM and 0.097 µM and 0.055 µM and 0.104 µM and 0.213 µM and 0.137 µM and 0.151 µM and 0.081 µM and 0.091 µM and 0.147 µM and 0.158 µM
- Selectivity ACC1 vs. ACC2 (mean of the individual measurements ± standard deviation) (human ACC1 [2]): 28.2 ± 8.5
- CLplasma [3]: 0.15 mL/min/kg
- Vss [3]: 0.3 L/kg
- F [3]: 83%
- t½ [3]: 28 h
- Deaths ([4]; 25 mg/kg oral): 0 of 4
- Deaths ([4]; 50 mg/kg oral): 0 of 4
- Deaths ([4]; 100 mg/kg oral): 0 of 4
- MTD at 21 days [4]: > 100 mg/kg
- Deaths (human PC-3 cells; [7]): 0 of 9
- T/C (human PC-3 cells; [7]): 0.30
- Deaths (human PC-3 cells; [8]): 2 of 9
- T/C (human PC-3 cells; [8]): 0.15
- tolerability (good: body weight change <=minus 10% and 100% survival) (human PC-3 cells; 100 mg/kg, administration 2 times per day): no good tolerability
- tolerability (good: body weight change <=minus 10% and 100% survival) (human PC-3 cells; 100 mg/kg, administration once per day): good tolerability
- ther. AUC (mouse) ([5]; dosage (mouse) 100 mg/kg 1 × per day): 984 µg·h/mL
- ther. AUC (mouse) ([5]; dosage (mouse) 100 mg/kg 2 × per day): 1495 µg·h/mL
- calc. AUC (human) ([6]; from mouse dosage 100 mg/kg 1 × per day): 6494 µg·h/mL
- calc. AUC (human) ([6]; from mouse dosage 100 mg/kg 2 × per day): 9867 µg·h/mL
- pred. CL (human) [6]: 0.05 mL/min/kg
- IC50 (human ACC2): 3.13 µM and 3.93 µM and 4.54 µM and 2.53 µM and 2.33 µM and 2.51 µM and 3.36 µM and 2.75 µM and 2.03 µM and 2.86 µM and 3.32 µM and 5.14 µM and 5.2 µM
- IC50 (human ACC2; listed as V.3-a): 3.13 µM and 3.93 µM and 4.54 µM and 2.53 µM and 2.33 µM and 2.51 µM and 3.36 µM and 2.75 µM and 2.03 µM and 2.86 µM and 3.32 µM and 5.14 µM and 5.2 µM

SMILES: CO[C@]1(C)CC[C@]2(CC1)NC(=O)C(c1cc(-c3ccc(Cl)c(F)c3)ccc1C)=C2O [Example V.2-a, (5r,8r)-3-(4′-Chloro-3′-fluoro-4-methylbiphenyl-3-yl)-4-hydroxy-8-methoxy-8-methyl-1-azaspiro[4.5]dec-3-en-2-one]
- IC50 (human ACC1 [1]; listed as V.4-a): 83 nM and 249 nM and 63 nM and 67 nM and 154 nM and 184 nM (2×) and 90 nM and 87 nM and 75 nM
- IC50 (human ACC1 [1]): 83 nM and 249 nM and 63 nM and 67 nM and 154 nM and 184 nM (2×) and 90 nM and 87 nM and 75 nM
- Selectivity ACC1 vs. ACC2 (mean of the individual measurements ± standard deviation) (human ACC1 [2]): 57.2 ± 6.4
- Selectivity ACC1 vs. ACC2 (mean of the individual measurements ± standard deviation) (human ACC1 [2]; listed as V.4-a): 57.2 ± 26.4
- CLplasma [3]: 0.217 mL/min/kg
- Vss [3]: 0.51 L/kg
- F [3]: 71%
- t½ [3]: 33 h
- Deaths ([4]; 10 mg/kg oral): 0 of 4
- Deaths ([4]; 20 mg/kg oral): 0 of 4
- Deaths ([4]; 40 mg/kg oral): 0 of 4
- Deaths ([4]; 80 mg/kg oral): 0 of 4
- MTD at 21 days [4]: > 80 mg/kg
- Deaths (human PC-3 cells; [9]): 0 of 9
- T/C (human PC-3 cells; [9]): 0.71
- Deaths (human PC-3 cells; [10]): 1 of 9
- T/C (human PC-3 cells; [10]): 0.27
- Deaths (human PC-3 cells; [11]): 0 of 9
- T/C (human PC-3 cells; [11]): 0.44
- tolerability (good: body weight change <=minus 10% and 100% survival) (human PC-3 cells; 80 mg/kg, administration 2 times per day): no good tolerability
- tolerability (good: body weight change <=minus 10% and 100% survival) (human PC-3 cells; 80 mg/kg, administration once per day): good tolerability
- ther. AUC (mouse) ([5]; dosage (mouse) 80 mg/kg 1 × per day): 544 µg·h/mL
- ther. AUC (mouse) ([5]; dosage (mouse) 80 mg/kg 2 × per day): 672 µg·h/mL
- calc. AUC (human) ([6]; from mouse dosage 80 mg/kg 1 × per day): 3737 µg·h/mL
- calc. AUC (human) ([6]; from mouse dosage 80 mg/kg 2 × per day): 4702 µg·h/mL
- pred. CL (human) [6]: 0.1 mL/min/kg
- IC50 (human ACC2): 9.56 µM and 9.2 µM and 4.99 µM and 5.8 µM and 8.63 µM and 7.81 µM and 8.81 µM and 3.99 µM and 2.14 µM and 2.9 µM
- IC50 (human ACC2; listed as V.4-a): 9.56 µM and 9.2 µM and 4.99 µM and 5.8 µM and 8.63 µM and 7.81 µM and 8.81 µM and 3.99 µM and 2.14 µM and 2.9 µM
